Values quoted from earlier work in patent US20200181654A1, “AGLYCONE PRODUCTION PROMOTER” (priority 2016, published 2020).

Settings: after oral ingestion

Question: Which “maximum values of the plasma concentrations of the aglycones, relative to ingestion of the glycosides (daidzin, genistin)” value does the source give for `O=c1c(-c2ccc(O)cc2)coc2cc(O)ccc12` [daidzein] here?
Answer: Its value is “five times or greater”.

Question: For `O=c1c(-c2ccc(O)cc2)coc2cc(O)cc(O)c12` [genistein], which “maximum values of the plasma concentrations of the aglycones, relative to ingestion of the glycosides (daidzin, genistin)” value is on record?
Answer: Its value is “five times or greater”.
